Structures are written as SMILES. Values joined by “and” are separate entries in the source; they are usually repeats but may differ in a detail not shown here. Identical values can stand only once. Toxic doses and inconclusive results are not listed.

The assay concerns B6C3F1 mice, ip Sarcoma M5076, median survival T/C. Kind of assay: NCI In Vivo Anticancer Drug Screen. Data for tumor model Sarcoma M5076 (intraperitoneal) in B6C3F1 mice. As to conditions: endpoint: median survival time, higher = longer survival. Summed up:
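Antitumour effect is judged in tumour-bearing mice by comparing survival after compound dosing against vehicle-only animals, reported as T/C.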

The mark [1] stands for this setting: dose: 25.0 mg/kg/injection, schedule: Q04DX004 (ip), vehicle: water.
The mark [2] stands for this setting: dose: 50.0 mg/kg/injection, schedule: Q04DX004 (ip), vehicle: water.
Setting [3] is: dose: 100.0 mg/kg/injection, schedule: Q04DX004 (ip), vehicle: water.
Setting [4] is: dose: 37.5 mg/kg/injection, schedule: Q04DX004 (ip), vehicle: saline with Tween-80.
[5] abbreviates: dose: 75.0 mg/kg/injection, schedule: Q04DX004 (ip), vehicle: saline with Tween-80.
The mark [6] stands for this setting: dose: 6.25 mg/kg/injection, schedule: Q04DX004 (ip), vehicle: saline with Tween-80.
Where [7] appears, read: dose: 12.5 mg/kg/injection, schedule: Q04DX004 (ip), vehicle: saline with Tween-80.
[8] abbreviates: dose: 50.0 mg/kg/injection, schedule: Q04DX004 (ip), vehicle: Klucel (hydroxypropylcellulose) (HPC).
Setting [9] is: dose: 100.0 mg/kg/injection, schedule: Q04DX004 (ip), vehicle: Klucel (hydroxypropylcellulose) (HPC).
[10] abbreviates: dose: 200.0 mg/kg/injection, schedule: Q04DX004 (ip), vehicle: Klucel (hydroxypropylcellulose) (HPC).
Where [11] appears, read: dose: 400.0 mg/kg/injection, schedule: Q04DX004 (ip), vehicle: Klucel (hydroxypropylcellulose) (HPC).

Regarding `C/C=C/C=C\C=C/C(O)CC(OP(=O)(O)O)C(C)(O)/C=C/C1CC=CC(=O)O1` (configuration not stated), the T/C reads like this: (dose: 0.75 mg/kg/injection, schedule: Q04DX004 (ip), vehicle: Klucel (hydroxypropylcellulose) (HPC)) 104 % of control; (dose: 1.5 mg/kg/injection, schedule: Q04DX004 (ip), vehicle: Klucel (hydroxypropylcellulose) (HPC)) 112 % of control; (dose: 1.5 mg/kg/injection, schedule: Q04DX004 (ip), vehicle: water) 106 % of control; (dose: 3.0 mg/kg/injection, schedule: Q04DX004 (ip), vehicle: Klucel (hydroxypropylcellulose) (HPC)) 111 % of control; (dose: 3.0 mg/kg/injection, schedule: Q04DX004 (ip), vehicle: water) 108 % of control and 111 % of control; (dose: 6.0 mg/kg/injection, schedule: Q04DX004 (ip), vehicle: Klucel (hydroxypropylcellulose) (HPC)) 112 % of control. The T/C was 108 % of control and 113 % of control (dose: 6.0 mg/kg/injection, schedule: Q04DX004 (ip), vehicle: water); 108 % of control (dose: 12.0 mg/kg/injection, schedule: Q04DX004 (ip), vehicle: water); 112 % of control (dose: 24.0 mg/kg/injection, schedule: Q04DX004 (ip), vehicle: water).
`C#CCN(Cc1ccc2nc(N)[nH]c(=O)c2c1)c1ccc(C(=O)NC(CCC(=O)O)C(=O)O)cc1` (configuration not stated): the T/C by setting is: under setting [1], 98 % of control; under setting [2], 98 % of control and 118 % of control; under setting [3], 120 % of control; (dose: 200.0 mg/kg/injection, schedule: Q04DX004 (ip), vehicle: water) 162 % of control; (dose: 400.0 mg/kg/injection, schedule: Q04DX004 (ip), vehicle: water) 152 % of control and 175 % of control.
With `C/C=C/C(C)C1OC1(C)C(O)C1COC(=O)C(O)C(OC)C(C)C(=O)C(C)C(O)/C(C)=C/C(C)C(=O)CC(O)C(C)C1=O` (configuration not stated), the T/C reads like this: (dose: 2.5 micrograms/kg/injection, schedule: Q04DX004 (ip), vehicle: saline) 97 % of control; (dose: 5.0 micrograms/kg/injection, schedule: Q04DX004 (ip), vehicle: saline) 91 % of control; (dose: 10.0 micrograms/kg/injection, schedule: Q04DX004 (ip), vehicle: saline) 102 % of control; (dose: 20.0 micrograms/kg/injection, schedule: Q04DX004 (ip), vehicle: saline) 96 % of control.
As to `CCN(CC)Cc1c(OC)ccc2[nH]c3c4ccc(Cl)cc4ncc3c12`, the T/C (dose: 15.63 mg/kg/injection, schedule: Q04DX004 (ip), vehicle: saline with Tween-80) is 104 % of control; the T/C (dose: 31.25 mg/kg/injection, schedule: Q04DX004 (ip), vehicle: saline with Tween-80) is 106 % of control; the T/C (dose: 62.5 mg/kg/injection, schedule: Q04DX004 (ip), vehicle: saline with Tween-80) is 105 % of control; the T/C (dose: 125.0 mg/kg/injection, schedule: Q04DX004 (ip), vehicle: saline with Tween-80) is 101 % of control; the T/C (dose: 250.0 mg/kg/injection, schedule: Q04DX004 (ip), vehicle: saline with Tween-80) is 100 % of control.
In the case of `C=CCNc1nc2c(s1)c(C)c(O)c1ccccc12`, the T/C by setting is: under setting [4], 98 % of control; under setting [5], 88 % of control.
For `Cc1nnc2nc(N)[nH]n2c1=O`, the T/C runs as follows: under setting [1], 97 % of control; under setting [2], 104 % of control; under setting [3], 96 % of control.
In the case of `CC(/C=C/C1OC(=O)C=CC1C)=C\C(C)C/C=C/C(C)=C/C(CO)C(=O)C(C)C(O)C(C)C/C(C)=C/C(=O)O` (configuration not stated), the T/C by setting is: (dose: 13.63 micrograms/kg/injection, schedule: Q04DX004 (ip), vehicle: other) 100 % of control; (dose: 27.25 micrograms/kg/injection, schedule: Q04DX004 (ip), vehicle: other) 107 % of control; (dose: 54.5 micrograms/kg/injection, schedule: Q04DX004 (ip), vehicle: other) 109 % of control; (dose: 109.0 micrograms/kg/injection, schedule: Q04DX004 (ip), vehicle: other) 113 % of control; (dose: 500.0 micrograms/kg/injection, schedule: Q04DX004 (ip), vehicle: other) 171 % of control; (dose: 1000.0 micrograms/kg/injection, schedule: Q04DX004 (ip), vehicle: other) 202 % of control. The T/C (dose: 2000.0 micrograms/kg/injection, schedule: Q04DX004 (ip), vehicle: other) was 192 % of control.
For the molecule `Cc1cc(O)c2c(c1O)C(=O)C13C(=C2O)C(=O)C2C(O)C1C1C(O)C3C(=O)C3=C(O)c4c(O)cc(C)c(O)c4C(=O)C321` (configuration not stated), the T/C is 118 % of control (dose: 1.56 mg/kg/injection, schedule: Q04DX004 (ip), vehicle: saline with Tween-80); 118 % of control (dose: 3.12 mg/kg/injection, schedule: Q04DX004 (ip), vehicle: saline with Tween-80); 118 % of control under setting [6]; 124 % of control under setting [7].
`C=CCOc1cc2c(cc1C(C)c1ccc(OC)cc1)OCO2` (configuration not stated): the T/C (dose: 25.0 mg/kg/injection, schedule: Q04DX004 (ip), vehicle: Klucel (hydroxypropylcellulose) (HPC)) is 98 % of control; the T/C under setting [8] was 116 % of control; the T/C (dose: 75.0 mg/kg/injection, schedule: Q04DX004 (ip), vehicle: Klucel (hydroxypropylcellulose) (HPC)) is 113 % of control; the T/C under setting [9] was 115 % of control; the T/C (dose: 144.0 mg/kg/injection, schedule: Q04DX004 (ip), vehicle: Klucel (hydroxypropylcellulose) (HPC)) is 118 % of control; the T/C (dose: 150.0 mg/kg/injection, schedule: Q04DX004 (ip), vehicle: Klucel (hydroxypropylcellulose) (HPC)) is 106 % of control. Besides, the T/C under setting [10] is 123 % of control; the T/C (dose: 240.0 mg/kg/injection, schedule: Q04DX004 (ip), vehicle: Klucel (hydroxypropylcellulose) (HPC)) was 108 % of control; the T/C (dose: 300.0 mg/kg/injection, schedule: Q04DX004 (ip), vehicle: Klucel (hydroxypropylcellulose) (HPC)) was 124 % of control; the T/C under setting [11] was 108 % of control.
As to `Oc1c(Cl)cc(Cl)cc1C=NCCSc1ccc(Cl)cc1`, the T/C runs as follows: under setting [8], 97 % of control and 121 % of control; under setting [9], 98 % of control and 117 % of control; under setting [10], 97 % of control and 110 % of control; under setting [11], 94 % of control and 112 % of control; (dose: 800.0 mg/kg/injection, schedule: Q04DX004 (ip), vehicle: Klucel (hydroxypropylcellulose) (HPC)) 100 % of control.
For the molecule `O=P1(N(CCCl)CCCl)NCCCO1` (configuration not stated), the T/C by setting is: (dose: 80.0 mg/kg/injection, schedule: Q04DX003 (ip), vehicle: saline) 201 % of control; (dose: 160.0 mg/kg/injection, schedule: Q04DX003 (ip), vehicle: saline) 261 % of control.
Consider `CC1CC12OC(=O)N(c1cc(Cl)cc(Cl)c1)C2=O` (configuration not stated), for which the T/C (dose: 37.5 mg/kg/injection, schedule: Q04DX004 (ip), vehicle: saline + Tween-80 + alcohol) was 101 % of control; the T/C (dose: 75.0 mg/kg/injection, schedule: Q04DX004 (ip), vehicle: saline + Tween-80 + alcohol) was 99 % of control; the T/C (dose: 150.0 mg/kg/injection, schedule: Q04DX004 (ip), vehicle: saline + Tween-80 + alcohol) was 99 % of control; the T/C (dose: 300.0 mg/kg/injection, schedule: Q04DX004 (ip), vehicle: saline + Tween-80 + alcohol) is 95 % of control; the T/C (dose: 600.0 mg/kg/injection, schedule: Q04DX004 (ip), vehicle: saline + Tween-80 + alcohol) was 91 % of control.
As to `COc1cccc2c1C(=O)C1=C(C2=O)c2c(O)cc(CO)cc2C(O)C1O` (configuration not stated), the T/C under setting [6] is 100 % of control; the T/C under setting [7] is 106 % of control; the T/C (dose: 25.0 mg/kg/injection, schedule: Q04DX004 (ip), vehicle: saline with Tween-80) is 92 % of control; the T/C (dose: 50.0 mg/kg/injection, schedule: Q04DX004 (ip), vehicle: saline with Tween-80) was 101 % of control.
Turning to `COc1ccc(-n2c(CSc3ccc(Cl)cc3)n[nH]c2=S)cc1`, the T/C by setting is: under setting [4], 96 % of control; under setting [5], 101 % of control; (dose: 150.0 mg/kg/injection, schedule: Q04DX004 (ip), vehicle: saline with Tween-80) 96 % of control; (dose: 300.0 mg/kg/injection, schedule: Q04DX004 (ip), vehicle: saline with Tween-80) 87 % of control.
In the case of `Cc1c2ccccc2cc2cccc[n+]12`, the T/C was 100 % of control (dose: 10.0 mg/kg/injection, schedule: Q04DX004 (ip), vehicle: saline); 96 % of control (dose: 20.0 mg/kg/injection, schedule: Q04DX004 (ip), vehicle: saline); 96 % of control (dose: 40.0 mg/kg/injection, schedule: Q04DX004 (ip), vehicle: saline).

Values taken from PubChem BioAssay AID292 (DTP/NCI, 2004).
